According to patent publication US11661433B2, “Near-IR activatable fluorescent small molecules with dual modes of cytotoxicity” (VIRGINIA COMMONWEALTH UNIVERSITY, priority 2018, dated 2023):
Where two headings read alike, the source gives them in different places. One block for each compound: values may come before it.

Columns and labels:
[1] = tested on: C-33 A (human cervical carcinoma); assay: MTT assay, C-33 A cells; assay type: cell-based
Method: (§1) MTT assay: Cytotoxic profiles of the compounds were assessed in the following cell lines (passage number not exceeding 15): MCF-7 (human breast cancer) C-33 A (human cervical carcinoma) and HEK293T (transformed human kidney). Around 6000 cells were seeded in 96 well transparent flat-bottom tissue-culture plate in 200 μl of Dulbecco's Modified Eagle Medium (DMEM) containing 10% FBS (Fetal Bovine Serum) and were incubated for 24 h at 37° C. and 5% CO2. We performed an initial control experiment with vehicle alone (0.1% DMSO-DMEM) on cells with different dosages of near-IR light and compared it to unexposed counterparts. […] One such plate was exposed to near-IR light for 45 min in phenol-red free DMEM (200 μl) and room temperature was maintained using a cooling system. Another identical plate was kept in dark. The plates were incubated for another 24 h in dark. Finally, MTT [3-(4,5-dimethylthiazole-2-yl)-2,5-diphenyltetrazolium bromide] (25 μl of 5 mg/ml solution in PBS) was added and incubated for 3-4 h. The absorbance of the precipitated formazan was recorded at 550 nm in DMSO. Cells treated with 0.1% DMSO-DMEM was kept as controls which represented 100% viability. The half-growth inhibitory concentration (IC50) values were calculated by nonlinear regression analysis using GraphPad Prism5. The data is represented from two independent set of experiments, each of which was performed in triplicate.

[2] = tested on: MCF-7 (human breast cancer); assay: MTT assay, MCF-7 cells; assay type: cell-based
Method: as §1

ctDNA [3] = assay: DNA bound Pt content by ICP-MS; assay type: biochemical; conditions: extended incubation with ctDNA in the dark
Method: DNA bound Pt content: A 1×-PBS solution containing ctDNA (500 μM) and 1 (50 μM in 0.1% DMSO-PBS) was irradiated with near-IR light (720-740 nm) for 15, 30 and 60 mins. Another identical set was incubated in dark for comparison. After treatment, the DNA was precipitated from the solutions using 10 mL of cooled ethanol, vortexed, and collected by centrifugation. The precipitate was washed twice with cooled ethanol (5 mL) to remove soluble platinum complexes. The white fibrous precipitate was dissolved using 200 μl of conc. HNO3 for 12 h and diluted with distilled water to 2% HNO3-water solutions. Platinum content was measured by ICP-MS instrument. Untreated samples (DNA alone, complex alone) were kept for control. Platinum standards were made by dissolving K2PtCl4 in 98% aq. HNO3 and used for calibration. The data along with the deviation is reported based on experiments performed in duplicate.

human cancer cell lines = assay: MTT cytotoxicity in a panel of human cancer cell lines; assay type: cell-based; conditions: dark, similar conditions
Method: MTT assay: Cytotoxic profiles of the compounds were assessed in the following cell lines (passage number not exceeding 15): MCF-7 (human breast cancer) C-33 A (human cervical carcinoma) and HEK293T (transformed human kidney). Around 6000 cells were seeded in 96 well transparent flat-bottom tissue-culture plate in 200 μl of Dulbecco's Modified Eagle Medium (DMEM) containing 10% FBS (Fetal Bovine Serum) and were incubated for 24 h at 37° C. and 5% CO2. We performed an initial control experiment with vehicle alone (0.1% DMSO-DMEM) on cells with different dosages of near-IR light and compared it to unexposed counterparts. The cells were unharmed by light and vehicle alone up to 45 min of photoirradiation. Cells were treated with various concentrations of 1, 2, IR797-acac, cisplatin and an equimolar mixture of IR797-acac and cisplatin in 0.1% DMSO-DMEM for 4 h or 48 h in the dark. One such plate was exposed to near-IR light for 45 min in phenol-red free DMEM (200 μl) and room temperature was maintained using a cooling system. Another identical plate was kept in dark. The plates were incubated for another 24 h in dark. Finally, MTT [3-(4,5-dimethylthiazole-2-yl)-2,5-diphenyltetrazolium bromide] […] The absorbance of the precipitated formazan was recorded at 550 nm in DMSO. […] The half-growth inhibitory concentration (IC50) values were calculated by nonlinear regression analysis using GraphPad Prism5. […]

[4] = Photodecomposition and dark stability (absorbance, LC-MS); assay type: physicochemical; conditions: buffer, pH 7.4
Method: High performance liquid chromatography: For verifying purity, samples (25 μl in 2.5% DMSO-H2O) were loaded on an analytical C18 column and gradient was maintained at 10-100 percent of MeCN—H2O from 10-50 min. The absorbance was measured at different wavelengths within the range of 200-800 nm. For photolysis experiments, solution of 1 (30 μl of 100 nM in 0.01% of DMSO-PBS, irradiated for 1 min) was injected on the column and eluted using the same gradient as above.
Liquid-chromatography mass spectral experiments: Solutions of 1 and IR797-acac (100 nM in 0.01% DMSO-PBS) were used to carry out LC-MS studies. Samples were injected on a self-packed fused silica (polymicro technologies) trap column (360 micron o.d.×100 micron i.d.) with a Kasil frit packed with 5-15 micron irregular phenyl C-18 YMC packing. The trap column is connected to an analytical column (360 micron×50 micron) with a fritted tip at 5 micron or less (New Objective) packed with 5 μm phenyl C-18 YMC packing. Compounds were initially trapped and then eluted into a Thermo Finnigan LCQ deca XP max mass spectrometer (Thermo Scientific) with an acetonitrile gradient from 0% to 80% over 5 minutes at a flow rate of between 50-150 nl/min. […]

ctDNA [5] = assay: DNA melting experiments and Hoechst displacement assays; assay type: binding; conditions: in the dark
Method: DNA thermal denaturation experiments: The DNA thermal denaturation experiments were performed by monitoring the absorption intensity of ct-DNA (200 μM) at 260 nm at increasing temperatures (from 40 to 90° C.), both in the absence and presence of complex 1 and IR797-acac (20 μM in 1% DMSO-DPBS solutions, pH=7.2). The experiments were performed using Agilent UV-visible spectrophotometer connected to a Peltier thermostat for temperature control. Data was recorded with increasing the temperature of the solution by 1.0° C. per min. The derivative of the melting plots gave the DNA melting temperature (Tm) of the ct-DNA. Ethidium bromide (20 μM) as a standard intercalator was used for comparison.

Solubility in solvents = assay type: physicochemical
Method: Synthesis of IR797-acac: IR797 chloride (250 mg, 0.49 mmol), acetylacetone (245 μl, 2.45 mmol) and N,N-diisopropylethylamine (90 μl, 0.49 mmol) were dissolved in acetonitrile (10 mL) in a sealed vial. The dark green colored solution was heated at 70° C. on a microwave apparatus (Discover, CEM, 60 W) for 15 mins. The progress of the reaction was monitored via TLC and stopped only after full consumption of the starting dye. The reaction mixture was allowed to cool down to room temperature and dichloromethane (50 mL) was added. The organic layer was washed using saturated sodium bicarbonate solution (2×10 ml), dried over anhydrous sodium sulfate, filtered, and evaporated using a rotavac. The crude material was subjected to column chromatography using ethyl acetate (100%) and dichloromethane-methanol eluents (0-10%) to yield pure product, IR797-acac (150 mg, 50% yield). ^1H NMR (400 MHz, CDCl3): δ (ppm)=7.43-7.36 (m, 4H), 7.31 (d, J=7.4 Hz, 2H), 7.21 (t, J1=J2=7.2 Hz, 2H), 7.11 (d, J=8.0 Hz, 2H), 6.20 (d, J=14 Hz, 2H), 3.74 (s, 6H), 3.15 (s, 4H), 2.00 (s, 6H), 1.58 (s, 12H). ^13C NMR (100 MHz, CDCl3): δ (ppm)=191.42, 170.78, 144.66, 142.96, 140.71, 137.40, 128.80, 124.99, 122.04, 110.04, 103.39, 48.82, 32.53, 28.42, 23.60. ESI-MS in MeCN: m/z (expected)=533.33, m/z (observed)=533.32 [M-Cl]^+ (100%). […]

Compound: N.N.[Cl][Pt][Cl] [CP, cisplatin, reference compound]
IC50 ([1]; cisplatin incubated 48 h in the dark, light 45 mins, 720-740 nm, read-out: IC50 C-33 A Light): 16.1 ± 1.5 µM
IC50 ([1]; cisplatin incubated 48 h in the dark, read-out: IC50 C-33 A Dark): 17.7 ± 1.5 µM
IC50 ([2]; cisplatin incubated 48 h in the dark, light 45 mins, 720-740 nm, read-out: IC50 MCF-7 Light): 22.5 ± 3.2 µM
IC50 ([2]; cisplatin incubated 48 h in the dark, read-out: IC50 MCF-7 Dark): 25 ± 2.2 µM

Compound: CC1=CC(C)=[O+][Pt-2]([NH3+])([NH3+])[O]1.O=[N+]([O-])[O-] (centres unmarked) [Complex 2, [Pt(NH3)2(acac)](NO3)], reference compound]
incorporation of Pt into DNA in the dark (ctDNA [3]): slow incorporation

IC50 ([1]; 4 h in dark, then light 45 mins, 720-740 nm, 3.5 ± 1.5 mW·cm^−2, read-out: IC50 C-33 A Light): 0.3 ± 0.07 µM
IC50 ([1]; 4 h in the dark, read-out: IC50 C-33 A Dark): 1.2 ± 0.1 µM
IC50 ([2]; 4 h in dark, then light 45 mins, 720-740 nm, 3.5 ± 1.5 mW·cm^−2, read-out: IC50 MCF-7 Light): 4.7 ± 0.8 µM
IC50 ([2]; 4 h in the dark, read-out: IC50 MCF-7 Dark): 5.9 ± 0.3 µM
half-life of photodecomposition t1/2^L [4]: ~40 s
stability in dark t1/2^D [4]: ~10 h
DNA interaction mode (ctDNA [5]): interact with the minor groove of ctDNA
solubility (Solubility in solvents): readily soluble in polar solvents
Compound: CC(=O)C(=C(C)O)C1=C(C=CC2=[N+](C)c3ccccc3C2(C)C)CCC1=CC=C1N(C)c2ccccc2C1(C)C.[Cl-] [IR797-acac]
toxicity in unexposed cells (human cancer cell lines): toxic on its own
